In data set [1] the test system is hair loss (men Norwood Hamilton grade III to grade V; women Ludwig grade II and III). The conditions noted are these: human, in vivo.
Experimental: (§1) This controlled clinical trial compares the current treatment for hair loss within two controlled groups for both men and women against the use of one embodiment of the nutritional therapy regimen described herein. One hundred patients in each of the 4 groups, a total of 400 patients, were followed for 1 year. The progress was evaluated every 2 months with computerized measurements of hair density, hair caliber, global photography and uniquely designed self-assessment scores.
(§2) Group 3 TM: Treatment group for 100 men (TM) and
(§3) Group 4 TW: treatment group for 100 women (TW)
(§4) Treatment groups for both men and women followed the same protocol.
The subject of the next data set is hair loss. The conditions noted are these: cited from earlier work.
Data set [2] relates to hair loss (men Norwood Hamilton grade III to grade V; women Ludwig grade II and III). Put plainly: Controlled clinical trial: minoxidil and finasteride in men, minoxidil alone in women, versus nutrient treatment regimen (Example 1). Particulars: human, in vivo.
Experimental: as §1, §2, §3, §4

Read-outs that look alike come from different tables or passages of the source.

In the case of `CC(C)(C)NC(=O)[C@H]1CC[C@H]2[C@@H]3CC[C@H]4NC(=O)C=C[C@]4(C)[C@H]3CC[C@]12C` [finasteride], the “Side effects observed with the control group” value in data set [1] was “Loss of libido was reported by a few patients”. Further, the “Patients having deteriorated with hair loss more than the initial status” value in the data set with hair loss (after one year) is 17%. Besides, in the data set on hair loss (end of 1 year), the Improvement is listed as 48-59% and the Non-responders is 41-52%.

In the case of `Nc1cc(N2CCCCC2)nc(N)[n+]1[O-]` [minoxidil], the “Side effects observed with the control group” value in data set [2] is “scalp irritation, dryness, itching, and frizzy hair”. In addition, in data set [1], the “Duration for which patients complained of hair loss (initial shedding)” value is listed as 8-10 weeks.
